Experimental data from PMC12483217, “Exploring β-catenin and TCF4 interaction in complex environments by means of novel biosensing platform focal molography” (PLOS One, 2025).
Values belong to the molecule of their own block, whether it stands above or below them. Where a SMILES comes first, the peptide text is derived from it. Where no end group is shown, it is not given here. The star is where a group is joined. Biotin = O=C1N[C@H]2[C@H](CS[C@H]2CCCCC(=O)*)N1

Key:
[1] = target: T1, Human β-catenin (Homo sapiens, UniProt P35222); test: Focal molography (FM) direct binding of β-catenin to immobilised TCO-TCF4(7–30), buffer; settings: range over 3 sensors x 3 runs
T1 construct: Variant: β-catenin (human) (Hs134–670)+TCF4(Hs1–53); purchased Proteros Biostructures
T1 sequence (P35222 134-670): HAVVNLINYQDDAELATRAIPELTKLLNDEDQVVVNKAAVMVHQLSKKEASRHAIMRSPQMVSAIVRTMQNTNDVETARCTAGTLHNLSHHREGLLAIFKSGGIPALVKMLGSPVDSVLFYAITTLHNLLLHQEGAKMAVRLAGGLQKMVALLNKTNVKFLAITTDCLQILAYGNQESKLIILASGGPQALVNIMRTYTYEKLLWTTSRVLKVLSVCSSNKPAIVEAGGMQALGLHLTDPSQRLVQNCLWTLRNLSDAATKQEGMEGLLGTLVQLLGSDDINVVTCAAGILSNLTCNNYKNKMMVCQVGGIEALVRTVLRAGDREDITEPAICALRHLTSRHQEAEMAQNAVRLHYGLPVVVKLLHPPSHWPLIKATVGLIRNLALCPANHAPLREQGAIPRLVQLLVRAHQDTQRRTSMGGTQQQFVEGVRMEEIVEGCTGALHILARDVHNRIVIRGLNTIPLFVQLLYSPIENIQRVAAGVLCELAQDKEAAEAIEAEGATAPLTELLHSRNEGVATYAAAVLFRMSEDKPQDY
Description: (§1) FM experiments were conducted using a prototype FM reader from the “Fermi” generation developed by lino Biotech AG (Supplementary Figure 10 S1 File). The flow channel shape was hexagonal (Supplementary Figure 9 A&C S1 File) and the parallel region measured 12.0 x 1.9 x 0.1 mm. Only 18 molograms were recorded per measurement in order to save computing power for faster sampling rates of the intensities of the single molograms. Thus, the lower part of the double flow chamber was used. In all FM experiments, the same running buffer as in SPR was used. Samples in glass vials were injected from the autosampler (Alias, Spark Holland) and transferred with a syringe pump (Precision Syringe Drive/4, Hamilton) to the flow channel for 17 seconds at a flow rate of 400 µL/min (sample delivery step). […] During the association phase, the sample was passed through the flow chamber for one minute at a flow rate of 50 µL/min. To prevent the recording of the dilutive end of the sample, a fast flow rate of 500 µL/min was applied for two minutes to record the dissociation phase, followed by additional two minutes at a flow rate of 50 µL/min. For the regeneration, regeneration solution was injected from glass vials into the autosampler loop. The regeneration solution was passed through the flow chamber for three minutes at a flow rate of 100 µL/min.
(§2) A sensor chip of FM measured 9 x 18 mm. […]

[2] = target: T1, Human β-catenin; test: Focal molography (FM) direct binding of β-catenin to immobilised TCO-TCF4(7–30), RKO cell lysate; settings: cell lysate 1 Mio cells/mL, range over sensors and runs
Description: as §1, §2

[3] = target: T1, Human β-catenin; test: Focal molography (FM) competition: free TCF4(7–51) with 250 nM β-catenin over TCF4(7–30) sensor, RKO cell lysate; type: binding; settings: cell lysate 1 Mio cells/mL
Description: as §1
A sensor chip of FM measured 9 x 18 mm. The sensing area per mologram was 400 x 400 µm with 54 molograms (6 x 9 array) being present on one sensor chip. The center to center spacing of molograms in flow direction was 690 µm and 750 µm perpendicular to the flow. The sensors used in FM were manufactured and treated following published manufacturing protocols with the difference that the photoprotective PhSNPPOC group was replaced by a more hydrophilic PySNPPOC group. To activate the ridges using reactive immersion lithography, a phase mask was placed on the surface with a layer of 0.1% (v/v) hydroxyl amine in DMSO applied in between the mask and the sensor surface. The chip was exposed at 405 nm at a dose of 4000 mJ/cm^2 with a custom-built setup. Following exposure, the chip was incubated in 1 mM methyltetrazine-4-polyethyleneglycol-N-Hydroxysuccinimide (MeTz-PEG4-NHS) dissolved in HBST (10 mM HEPES, 150 mM NaCl, 0.05% (v/v) Tween20, pH 8.0) for 1 hour. After incubation, the chip was washed sequentially with 50:50 H2O/DMSO, DMSO, Isopropanol and H2O. Next, the entire chip surface, including the grooves, was activated by flood illumination with a dose of 18 J/cm^2. The chip was washed sequentially with 50:50 MQ H2O/DMSO, DMSO, Isopropanol and MQ H2O. As a final step, the chip was incubated with 10 mM tetrazine (Tz)-PEG5-NHS in HBST (10 mM HEPES, 150 mM NaCl, 0.05% (v/v) Tween20, pH 8.0) for 1 hour and washed with isopropanol and H2O. […]

[4] = target: T1, Human β-catenin; test: Focal molography (FM) competition: free TCF4(7–51) with 250 nM β-catenin over TCF4(7–30) sensor, buffer; type: binding; settings: range over 3 sensors x 3 runs
Description: as §1, §2

[5] = target: T1, Human β-catenin; test: SPR competition: free TCF4(7–51) with 250 nM β-catenin over immobilised TCF4(7–30), buffer; type: binding; settings: buffer pH 7.4, 95% confidence interval of fit
Description: (§3) For all SPR experiments, the running buffer consisting of 10 mM HEPES, 150 mM NaCl, 0.01% (v/v) P20, 1% (v/v) glycerol, 0.01% (v/v) BSA and 2% (v/v) DMSO at pH 7.4 was used. The TCF(7–30) peptide ([…]-K-biotin-amide) peptide was obtained from Biosyntan GmbH. Experiments were conducted at room temperature on a Biacore T200 (GE Healthcare, Uppsala, Sweden). The peptide was immobilized onto a Series S sensor chip SA (10352113, Cytiva, Uppsala, Sweden). Following the manufacturer’s protocol, the sensor was first prepared, and the peptide was injected at a concentration of 10 nM at a flow rate of 10 µL/min. Immobilization was achieved via biotin-streptavidin interaction to a level of 5, 25 and 50 RU in three different flow channels respectively. […] Binding analysis was monitored on all four flow channels with sample association time of one minute and dissociation time of four minutes at a flow rate of 50 µL/min. […]
(§4) The equilibrium dissociation constant (KD) and half maximal inhibitory concentration (IC50) were determined from binding signals collected in direct binding and competition experiments, respectively. […]
(§5) The SPR data was visualized and analyzed using GraphPad Prism 10.0.0 (Boston, Massachusetts USA, www.graphpad.com). For SPR analysis, signals recorded on the active surfaces were referenced with signals from the reference channel. […]

[6] = target: T1, Human β-catenin; test: SPR direct binding of β-catenin to immobilised biotinylated TCF4(7–30) in buffer; settings: only one Hill slope
Description: as §3, §4, §5

[7] = target: T2, beta-catenin (Homo sapiens, UniProt P35222); test: SPR
T2 chain: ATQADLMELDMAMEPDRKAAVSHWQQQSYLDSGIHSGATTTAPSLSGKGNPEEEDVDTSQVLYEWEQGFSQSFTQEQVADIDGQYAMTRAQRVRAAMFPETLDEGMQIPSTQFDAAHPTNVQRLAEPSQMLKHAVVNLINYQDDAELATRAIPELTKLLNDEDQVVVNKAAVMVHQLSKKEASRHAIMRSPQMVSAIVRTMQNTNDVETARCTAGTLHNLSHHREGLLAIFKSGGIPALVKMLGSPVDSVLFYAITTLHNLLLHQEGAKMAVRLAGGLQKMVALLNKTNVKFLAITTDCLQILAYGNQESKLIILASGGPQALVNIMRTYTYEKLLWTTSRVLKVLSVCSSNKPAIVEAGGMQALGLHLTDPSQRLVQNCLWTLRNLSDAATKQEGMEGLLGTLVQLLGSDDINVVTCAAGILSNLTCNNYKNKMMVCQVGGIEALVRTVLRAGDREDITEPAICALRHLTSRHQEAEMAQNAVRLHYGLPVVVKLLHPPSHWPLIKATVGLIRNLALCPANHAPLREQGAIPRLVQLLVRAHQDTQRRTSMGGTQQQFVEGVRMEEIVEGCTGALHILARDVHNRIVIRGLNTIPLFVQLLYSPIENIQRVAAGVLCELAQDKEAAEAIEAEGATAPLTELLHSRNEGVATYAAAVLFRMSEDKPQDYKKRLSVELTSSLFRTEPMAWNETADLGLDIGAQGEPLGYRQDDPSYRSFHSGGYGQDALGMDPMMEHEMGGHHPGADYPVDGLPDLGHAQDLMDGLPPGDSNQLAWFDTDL

Molecule: CC[C@H](C)[C@H](NC(=O)[C@H](CC(C)C)NC(=O)[C@H](CCC(=O)O)NC(=O)[C@H](CC(=O)O)NC(=O)[C@H](CC(N)=O)NC(=O)[C@H](C)NC(=O)CNC(=O)[C@H](CC(C)C)NC(=O)[C@H](CC(=O)O)NC(=O)[C@H](CC(=O)O)NC(=O)CNC(=O)CNC(=O)CN)C(=O)N[C@@H](CO)C(=O)N[C@@H](Cc1ccccc1)C(=O)N[C@@H](CCCCN)C(=O)N[C@@H](CC(=O)O)C(=O)N[C@@H](CCC(=O)O)C(=O)NCC(=O)N[C@@H](CCC(=O)O)C(=O)N[C@@H](CCC(N)=O)C(=O)N[C@@H](CCC(=O)O)C(=O)N[C@@H](CCC(=O)O)C(=O)N[C@@H](CCCCN)C(=O)O [TCF4(7–30)] (H-GGGDDLGANDELISFKDEGEQEEK-OH)
Kd [1]: 68 to 160 nM | Kd [2]: 100 to 140 nM

Molecule: GGGDDLGANDELISFKDEGEQEEKSSENSSAERDLADVKSSLVNE [TCF4 peptide TCF(7-51) 7-51]
Kd [7]: ~108 nM

Further lines, results first:

IC50 ([3]; Sensor 1, average of three runs, SD, read-out: IC50, Average ± SD): 170 nM | IC50 ([3]; Sensor 2, average of three runs, SD, read-out: IC50, Average ± SD): 160 nM | IC50 ([3]; Sensor 3, average of three runs, SD, read-out: IC50, Average ± SD): 140 nM | IC50 ([3]; range over sensors and runs, read-out: IC50): 140 to 170 nM | IC50 [4]: 110 to 200 nM | IC50 [5]: 95 to 115 nM
Molecule: GGGDDLGANDELISFKDEGEQEEKSSENSSAERDLADVKSSLVNE [TCF4(7–51)]

Hill slope of the dose-response [6]: 1.21
Molecule: CC[C@H](C)[C@H](NC(=O)[C@H](CC(C)C)NC(=O)[C@H](CCC(=O)O)NC(=O)[C@H](CC(=O)O)NC(=O)[C@H](CC(N)=O)NC(=O)[C@H](C)NC(=O)CNC(=O)[C@H](CC(C)C)NC(=O)[C@H](CC(=O)O)NC(=O)[C@H](CC(=O)O)NC(=O)CNC(=O)CNC(=O)CN)C(=O)N[C@@H](CO)C(=O)N[C@@H](Cc1ccccc1)C(=O)N[C@@H](CCCCN)C(=O)N[C@@H](CC(=O)O)C(=O)N[C@@H](CCC(=O)O)C(=O)NCC(=O)N[C@@H](CCC(=O)O)C(=O)N[C@@H](CCC(N)=O)C(=O)N[C@@H](CCC(=O)O)C(=O)N[C@@H](CCC(=O)O)C(=O)N[C@@H](CCCCN)C(=O)N[C@@H](CCCCNC(=O)CCCC[C@@H]1SC[C@@H]2NC(=O)N[C@@H]21)C(N)=O [biotinylated TCF4(7–30)] (H-GGGDDLGANDELISFKDEGEQEEKK(Biotin)-NH2; N-terminus assumed)
